Data from patent US20230257354A1, “NOVEL HETEROCYCLIC COMPOUNDS” (Hoffmann-La Roche Inc., priority 2020, published 2023).
Where a name gives a salt, the structure may show the parent alone.

What follows are compounds tested on Acinetobacter baumannii ATCC17978 (assay: Antimicrobial susceptibility testing, 90% growth inhibitory concentration (IC90) determination, ATCC17978). Conditions: Iso-Sensitest broth, OD 600 nm over 16 h, 35±2° C., read-out: ATCC 17978 IC90.
Format: cell-based
Experimental: Antimicrobial Susceptibility Testing: 90% Growth Inhibitory Concentration (IC90) Determination The in vitro antimicrobial activity of the compounds was determined according to the following procedure: The assay used a 10-points Iso-Sensitest broth medium to measure quantitatively the in vitro activity of the compounds against Acinetobacter baumannii ATCC17978 or ATCC17961. Stock compounds in DMSO were serially twofold diluted (e.g. range from 50 to 0.097 μM final concentration) in 384 wells microtiter plates and inoculated with 49 μl the bacterial suspension in Iso-Sensitest medium to have a final cell concentration of ˜5×10^(5) CFU/ml in a final volume/well of 50 ul/well. Microtiter plates were incubated at 35±2° C. Bacterial cell growth was determined with the measurement of optical density at X=600 nm each 20 minutes over a time course of 16 h. Growth inhibition was calculated during the logarithmic growth of the bacterial cells with determination of the concentration inhibiting 50% (IC50) and 90% (IC90) of the growth. Table 1 provides the 90% growth inhibitory concentrations (IC90) in micromoles per liter of the compounds of present invention obtained against the strain Acinetobacter baumannii ATCC17978.
Work on COc1ccc(-c2cnc(C(=O)Nc3ccc(C(=O)N[C@H]4C[C@@H](NC(=O)C5C[C@@H](O)CN5)C4)c(Cl)c3)n2C)c(F)c1F (stereo in doubt) [Example B38, N-[3-chloro-4-[[3-[[(4R)-4-hydroxypyrrolidine-2-carbonyl]amino]cyclobutyl]carbamoyl]phenyl]-5-(2,3-difluoro-4-methoxy-phenyl)-1-methyl-imidazole-2-carboxamide;formic acid] yielded an IC90 of 55 nM. For COc1ccc(-c2cnc(C(=O)Nc3ccc(C(=O)NCCOCCN)c(Cl)c3)n2C)c(F)c1F [Example A1, N-[4-[2-(2-Aminoethoxy)ethylcarbamoyl]-3-chloro-phenyl]-5-(2,3-difluoro-4-methoxy-phenyl)-1-methyl-imidazole-2-carboxamide], the IC90 was 240 nM. For COc1ccc(-c2cnc(C(=O)Nc3ccc(C(=O)NCCN4CCNCC4)c(Cl)c3)n2C)c(F)c1F [Example A2, N-[3-chloro-4-(2-piperazin-1-ylethylcarbamoyl)phenyl]-5-(2,3-difluoro-4-methoxy-phenyl)-1-methyl-imidazole-2-carboxamide], the IC90 was 610 nM. Work on COc1ccc(-c2cnc(C(=O)Nc3ccc(C(=O)NC4CCNC4)c(Cl)c3)n2C)c(F)c1F (stereo not drawn) [Example A3, N-[3-chloro-4-(pyrrolidin-3-ylcarbamoyl)phenyl]-5-(2,3-difluoro-4-methoxy-phenyl)-1-methyl-imidazole-2-carboxamide;formic acid] yielded an IC90 of 310 nM. With COc1ccc(-c2cnc(C(=O)Nc3ccc(C(=O)NC4CCNCC4)c(Cl)c3)n2C)c(F)c1F [Example A4, N-[3-chloro-4-(4-piperidylcarbamoyl)phenyl]-5-(2,3-difluoro-4-methoxy-phenyl)-1-methyl-imidazole-2-carboxamide;formic acid] the IC90 was 440 nM. COc1ccc(-c2cnc(C(=O)Nc3ccc(C(=O)NCC4CCNCC4)c(Cl)c3)n2C)c(F)c1F [Example A5, N-[3-chloro-4-(4-piperidylmethylcarbamoyl)phenyl]-5-(2,3-difluoro-4-methoxy-phenyl)-1-methyl-imidazole-2-carboxamide;formic acid] gave an IC90 of 550 nM. COc1ccc(-c2cnc(C(=O)Nc3ccc(C(=O)NCCCCCCN)c(Cl)c3)n2C)c(F)c1F [Example A6, N-[4-(6-aminohexylcarbamoyl)-3-chloro-phenyl]-5-(2,3-difluoro-4-methoxy-phenyl)-1-methyl-imidazole-2-carboxamide] showed an IC90 of 150 nM. Compound COc1ccc(-c2cnc(C(=O)Nc3ccc(C(=O)NCC4CC(CN)C4)c(Cl)c3)n2C)c(F)c1F (stereo not drawn) [Example A7, N-[4-[[3-(aminomethyl)cyclobutyl]methylcarbamoyl]-3-chloro-phenyl]-5-(2,3-difluoro-4-methoxy-phenyl)-1-methyl-imidazole-2-carboxamide;formic acid] has an IC90 of 240 nM. Work on COc1ccc(-c2cnc(C(=O)Nc3ccc(C(=O)NCC4CC(N)C4)c(Cl)c3)n2C)c(F)c1F (stereo not drawn) [Example A8, N-[4-[(3-aminocyclobutyl)methylcarbamoyl]-3-chloro-phenyl]-5-(2,3-difluoro-4-methoxy-phenyl)-1-methyl-imidazole-2-carboxamide;formic acid] yielded an IC90 of 500 nM. Compound Cn1c(-c2ccc(OCC#N)c(F)c2F)cnc1C(=O)Nc1ccc(C(=O)NCCOCCN)c(Cl)c1 [Example A9, N-[4-[2-(2-aminoethoxy)ethylcarbamoyl]-3-chloro-phenyl]-5-[4-(cyanomethoxy)-2,3-difluoro-phenyl]-1-methyl-imidazole-2-carboxamide;formic acid] has an IC90 of 250 nM. In the case of Cn1c(-c2ccc(OCC#N)c(F)c2F)cnc1C(=O)Nc1ccc(C(=O)NCCN2CCNCC2)c(Cl)c1 [Example A10, N-[3-chloro-4-(2-piperazin-1-ylethylcarbamoyl)phenyl]-5-[4-(cyanomethoxy)-2,3-difluoro-phenyl]-1-methyl-imidazole-2-carboxamide;2,2,2-trifluoroacetic acid], the IC90 was 360 nM. Compound Cn1c(-c2ccc(OCC#N)c(F)c2F)cnc1C(=O)Nc1ccc(C(=O)NCCCN2CCNCC2)c(Cl)c1 [Example A11, N-[3-chloro-4-(3-piperazin-1-ylpropylcarbamoyl)phenyl]-5-[4-(cyanomethoxy)-2,3-difluoro-phenyl]-1-methyl-imidazole-2-carboxamide;2,2,2-trifluoroacetic acid] has an IC90 of 310 nM. Work on Cc1cc(NC(=O)c2ncc(-c3ccc(OCC#N)c(F)c3F)n2C)ccc1C(=O)NCCCN1CCNCC1 [Example A12, 5-[4-(cyanomethoxy)-2,3-difluoro-phenyl]-1-methyl-N-[3-methyl-4-(3-piperazin-1-ylpropylcarbamoyl)phenyl]imidazole-2-carboxamide;2,2,2-trifluoroacetic acid] yielded an IC90 of 340 nM. Work on CCc1cc(NC(=O)c2ncc(-c3ccc(OC)c(F)c3F)n2C)ccc1C(=O)NCCOCCN [Example A13, N-[4-[2-(2-aminoethoxy)ethylcarbamoyl]-3-ethyl-phenyl]-5-(2,3-difluoro-4-methoxy-phenyl)-1-methyl-imidazole-2-carboxamide;formic acid] yielded an IC90 of 590 nM. Work on CCc1cc(NC(=O)c2ncc(-c3ccc(OC(F)F)cc3)n2C)ccc1C(=O)NCCOCCN [Example A14, N-[4-[2-(2-aminoethoxy)ethylcarbamoyl]-3-ethyl-phenyl]-5-[4-(difluoromethoxy)phenyl]-1-methyl-imidazole-2-carboxamide;hydrochloride] yielded an IC90 of 3000 nM. In the case of CCc1cc(NC(=O)c2ncc(-c3ccc(OC(C)C)c(F)c3)n2C)ccc1C(=O)NCCOCCN [Example A15, N-[4-[2-(2-aminoethoxy)ethylcarbamoyl]-3-ethyl-phenyl]-5-(3-fluoro-4-isopropoxy-phenyl)-1-methyl-imidazole-2-carboxamide;hydrochloride], the IC90 was 4500 nM. For CCc1cc(NC(=O)c2ncc(-c3ccc(OC)cc3Cl)n2C)ccc1C(=O)NCCOCCN [Example A16, N-[4-[2-(2-aminoethoxy)ethylcarbamoyl]-3-ethyl-phenyl]-5-(2-chloro-4-methoxy-phenyl)-1-methyl-imidazole-2-carboxamide;hydrochloride], the IC90 was 1500 nM. For CCc1cc(NC(=O)c2ncc(-c3ccc(OC(F)F)c(F)c3F)n2C)ccc1C(=O)NCCOCCN [Example A17, N-[4-[2-(2-aminoethoxy)ethylcarbamoyl]-3-ethyl-phenyl]-5-[4-(difluoromethoxy)-2,3-difluoro-phenyl]-1-methyl-imidazole-2-carboxamide;hydrochloride], the IC90 was 400 nM. CCc1cc(NC(=O)c2ncc(-c3c(F)cc(OC)cc3F)n2C)ccc1C(=O)NCCOCCN [Example A18, N-[4-[2-(2-aminoethoxy)ethylcarbamoyl]-3-ethyl-phenyl]-5-(2,6-difluoro-4-methoxy-phenyl)-1-methyl-imidazole-2-carboxamide;hydrochloride] showed an IC90 of 1200 nM. Compound Cn1c(-c2ccc(OC(F)F)c(F)c2F)cnc1C(=O)Nc1ccc(C(=O)NCCCN)c(Cl)c1 [Example A19, N-[4-(3-Aminopropylcarbamoyl)-3-chloro-phenyl]-5-[4-(difluoromethoxy)-2,3-difluoro-phenyl]-1-methyl-imidazole-2-carboxamide] has an IC90 of 1400 nM. Work on CCc1cc(NC(=O)c2ncc(-c3ccc(OCC#N)c(F)c3F)n2C)ccc1C(=O)NCCOCCN [Example A20, N-[4-[2-(2-aminoethoxy)ethylcarbamoyl]-3-ethyl-phenyl]-5-[4-(cyanomethoxy)-2,3-difluoro-phenyl]-1-methyl-imidazole-2-carboxamide;hydrochloride] yielded an IC90 of 960 nM.
